The source of these data is ChEMBL document CHEMBL5729210, “Benzodiazepine derivatives as RSV inhibitors” (2022).

The nature of this test: RSV-A Assay: The description is Japanese.
Take `O=C1Nc2ccccc2C(c2ccccc2)=NC1Nc1nnc(-c2ccc(N3CCOCC3)nc2)o1` (centres undefined): the concentration for a half-maximal effect (EC50) is below 400 nM.
As for `O=C1Nc2ccccc2C(c2ccccc2)=NC1Nc1nnc(-c2ccncc2)o1` (centres undefined), the concentration giving a half-maximal response (EC50) entry is “in the range around 600 nM”.
For `CN[C@H](c1ccccc1)c1nnc(NC2N=C(c3ccccc3)c3ccccc3NC2=O)o1` (some centres undefined) the value was above 800 nM.
In the case of `O=C1Nc2ccccc2C(c2ccccc2)=NC1Nc1nnc(-c2ccccc2-n2cccn2)o1` (centres undefined) it was above 800 nM.
Compound `CN1C(=O)C(Nc2nnc(-c3ccc(F)cc3)o2)N=C(c2ccccc2)c2ccccc21` (centres undefined) had an EC50 above 800 nM.
For `CC(C)(Cc1ccccc1)c1nnc(NC2N=C(c3ccccc3)c3ccccc3NC2=O)o1` (centres undefined) the value was above 800 nM; for `O=C1Nc2ccccc2C(c2ccccc2)=NC1Nc1nnc(-c2cccnc2N2CCCC(F)(F)C2)o1` (centres undefined), above 800 nM.
For `O=C1Nc2ccccc2C(c2ccccc2)=NC1Nc1nnc(C2CCOCC2)o1` (centres undefined) the value was above 800 nM; for `O=C1Nc2ccccc2C(c2ccccc2)=N[C@@H]1Nc1nnc(-c2ncc(C3=CCCCC3)cc2N2CCOCC2)o1`, “in the range around 600 nM”.
For `O=C1Nc2ccccc2C(c2ccccc2)=N[C@@H]1Nc1nnc(-c2ncsc2N2CCOCC2)o1` the value was below 400 nM.
Regarding `CSC(=N)NC1N=C(c2ccccc2)c2ccccc2NC1=O` (centres undefined), the EC50 is below 400 nM.
In the case of `O=C1Nc2ccccc2C(c2ccccc2)=N[C@@H]1Nc1nnc(-c2nc(C3CCC3)sc2N2CCOCC2)o1` it was below 400 nM.
For `N#Cc1ccn2ncc(-c3nnc(N[C@H]4N=C(c5ccccc5)c5ccccc5NC4=O)o3)c2c1` the value was above 800 nM.
For `O=C1Nc2ccccc2C(c2ccccc2)=NC1Nc1nnc(-c2ccc(-n3ccnc3)nc2)o1` (centres undefined) the value was above 800 nM; for `Cn1cc(N2CCOCC2)c(-c2nnc(N[C@H]3N=C(c4ccccc4)c4ccccc4NC3=O)o2)n1`, below 400 nM.
For the compound `O=C1Nc2ccccc2C(c2ccccc2)=NC1Nc1nnc(-c2ccc(C(F)(F)F)cn2)o1` (centres undefined), the EC50 is above 800 nM.
Take `C[C@@H]1CN(c2cc(C#N)cnc2-c2nnc(N[C@H]3N=C(c4ccccc4)c4ccccc4NC3=O)o2)CCO1`: the concentration for a half-maximal effect (EC50) entry was “in the range around 600 nM”.
For `O=C1Nc2ccccc2C(c2ccccc2)=NC1Nc1nnc(-c2cnccc2N2CCOCC2)o1` (centres undefined) the value was “in the range around 600 nM”; for `O=C1Nc2ccccc2C(c2ccccc2)=N[C@@H]1Nc1nnc(-c2ccc(F)cc2N2CC3CCC(C2)O3)o1`, “in the range around 600 nM”.
`O=C1Nc2ccccc2C(c2ccccc2)=NC1Nc1nnc(-c2ncc(N3CCOCC3)cc2F)o1` (centres undefined): the 50% effective concentration (EC50) was below 400 nM.
In the case of `NNC(=O)c1cc(F)cnc1N1CCOCC1`, the EC50 entry was “in the range around 600 nM”.
In the case of `COC[C@@H]1C[C@H]1c1cc(C(F)(F)F)cnc1-c1nnc(N[C@H]2N=C(c3ccccc3)c3ccccc3NC2=O)o1` it was above 800 nM; in that of `COCCOc1ccccc1-c1nnc(NC2N=C(c3ccccc3)c3ccccc3NC2=O)o1` (centres undefined), above 800 nM.
As to `Cc1cccc(-c2nnc(NC3N=C(c4ccccc4)c4ccccc4NC3=O)o2)n1` (centres undefined), the EC50 is above 800 nM.
In the case of `CN1CCC(N2CCC[C@H]2c2nnc(NC3N=C(c4ccccc4)c4ccccc4NC3=O)o2)CC1` (some centres undefined) it was above 800 nM; in that of `O=C1Nc2ccccc2C(c2ccccc2)=N[C@@H]1Nc1nnc(-c2ncc(C(F)(F)F)cc2N2C3CCC2COC3)o1`, below 400 nM; in that of `O=C1Nc2ccccc2C(c2ccccc2)=NC1Nc1nc(-c2ccccc2)ns1` (centres undefined), above 800 nM.
For `CN(C)Cc1ccc(-c2nnc(NC3N=C(c4ccccc4)c4ccccc4NC3=O)o2)o1` (centres undefined) the value was above 800 nM.
For `COCc1ccc(-c2nnc(NC3N=C(c4ccccc4)c4ccccc4NC3=O)o2)o1` (centres undefined) the value was above 800 nM; for `CCOC(=O)c1ncccc1N1CCOCC1`, below 400 nM.
In turn, `Cc1cc(-n2cncn2)ccc1-c1nnc(NC2N=C(c3ccccc3)c3ccccc3NC2=O)o1` (centres undefined) showed an EC50 above 800 nM.
For `O=C1Nc2ccccc2C(c2ccccc2)=NC1Nc1nnc(-c2cccc3ccccc23)o1` (centres undefined) the value was above 800 nM.
Take `O=C1Nc2ccccc2C(c2ccccc2)=NC1Nc1nnc(-c2ccc(-n3cccn3)cc2)o1` (centres undefined): the EC50 entry is “in the range around 600 nM”.
In the case of `O=C1Nc2ccccc2C(c2ccccc2)=NC1Nc1nnc(-c2ccc(Cl)o2)o1` (centres undefined) it was above 800 nM; in that of `O=C1Nc2ccccc2C(c2ccccc2)=N[C@@H]1Nc1nnc(-c2nsnc2N2CCOCC2)o1`, below 400 nM; in that of `COC[C@@H]1C[C@H]1c1cc(C(F)(F)F)cnc1-c1nnc(N[C@@H]2N=C(c3ccccc3)c3ccccc3NC2=O)o1`, above 800 nM.
In the case of `CS(=O)(=O)c1ccc(-c2nnc(NC3N=C(c4ccccc4)c4ccccc4NC3=O)o2)cc1` (centres undefined) it was above 800 nM; in that of `O=C1Nc2ccccc2C(c2ccccc2)=NC1Nc1nnc(-c2ccc(-n3cncn3)nc2)o1` (centres undefined), above 800 nM; in that of `N#Cc1ccc(-c2nnc(NC3N=C(c4ccccc4)c4ccccc4NC3=O)o2)cc1` (centres undefined), “in the range around 600 nM”.
As for `COC(=O)c1ccc(N2CCCC2)cc1N1CCOCC1`, the half-maximal effective concentration (EC50) is below 400 nM.
In the case of `O=C1Nc2ccccc2C(c2ccccc2)=NC1Nc1nnc([C@H]2COCCN2)o1` (some centres undefined) it was above 800 nM.
Consider `COc1ccnc(-c2nnc(NC3N=C(c4ccccc4)c4ccccc4NC3=O)o2)c1` (centres undefined), for which the EC50 is above 800 nM.
With `O=C1Nc2ccccc2C(c2ccccc2)=N[C@H]1Nc1nnc(-c2ccco2)o1`, the EC50 was above 800 nM.
For `NNC(=O)c1ccc(N2CCOCC2)cc1C(F)(F)F` the value was above 800 nM.
For `CN(C)CCOc1ccccc1-c1nnc(NC2N=C(c3ccccc3)c3ccccc3NC2=O)o1` (centres undefined) the value was above 800 nM.
For `N#Cc1ccc(-c2nnc(NC3N=C(c4ccccc4)c4ccccc4NC3=O)[nH]2)cc1` (centres undefined) the value was “in the range around 600 nM”.
`COc1cccc(-c2nnc(NC3N=C(c4ccccc4)c4ccccc4NC3=O)o2)c1` (centres undefined) showed an EC50 above 800 nM.
Turning to `O=C1Nc2ccccc2C(c2ccccc2)=NC1Nc1nnc([C@@H]2CCCN2C2CCNCC2)o1` (some centres undefined), the EC50 was above 800 nM.
In the case of `O=C1Nc2ccccc2C(c2ccccc2)=NC1Nc1nc2c(F)cccc2o1` (centres undefined) it was above 800 nM; in that of `COc1cccc(-c2nnc(NC3N=C(c4ccccc4)c4ccccc4NC3=O)o2)n1` (centres undefined), below 400 nM; in that of `O=C1Nc2ccccc2C(c2ccccc2)=N[C@@H]1Nc1nnc(-c2ncc(C(F)(F)F)cc2NCc2ccco2)o1`, above 800 nM.
In the case of `C[C@H]1CN(c2cc(C(F)(F)F)cnc2-c2nnc(N[C@H]3N=C(c4ccccc4)c4ccccc4NC3=O)o2)CCO1` it was below 400 nM; in that of `O=C1Nc2ccccc2C(c2ccccc2)=N[C@@H]1Nc1nnc(-c2cnc(-n3cccn3)nc2N2CCOCC2)o1`, above 800 nM; in that of `CCOC(=O)c1cnc(C2CC2)nc1N1CCOCC1`, below 400 nM.
For `CC(C)(O)c1nnc(NC2N=C(c3ccccc3)c3ccccc3NC2=O)o1` (centres undefined) the value was above 800 nM; for `N#Cc1cnc(-c2nnc(N[C@H]3N=C(c4ccccc4)c4cccc(F)c4NC3=O)o2)c(N2CCOCC2)c1`, below 400 nM.
In turn, `O=C1Nc2ccccc2C(c2ccccc2)=N[C@@H]1Nc1nnc(-c2ncsc2C2=CCOCC2)o1` yielded an EC50 below 400 nM.
For `COCCCc1cc(C(F)(F)F)cnc1C(=O)NN` the value was above 800 nM; for `N#Cc1ccc(-c2nnc(N[C@H]3N=C(c4ccccc4)c4ccccc4NC3=O)o2)c(N2CC3CCC(C2)O3)c1`, below 400 nM.
